Values after ≈ are worked out from the molar mass of the structure shown. Active and inactive are the calls of the source. The calls are words filed in the database; no cut-off is given here.
Tests used:
Cavia porcellus = experiment: Uteroevacuant activity in pregnant guinea pig at 20 mg/kg, ip administered on day 22 of gestation measured daily for 7 days; assay type: functional, organism-based; parameters: dose 20 mg/kg
KB = experiment: Cytotoxicity against human KB cells; assay type: functional; details: read-out: ED50 (the source's name)
P388 = experiment: Cytotoxicity against mouse P388 cells; assay type: functional; details: read-out: ED50 (the source's name)

SMILES: C=C1C(=O)O[C@@H]2/C=C(\C)CC/C=C(\C)[C@@H](OC(=O)C(C)C)[C@H](O)[C@@]12O [LEUCANTHANOLIDE]
- Activity (Cavia porcellus): inactive
- EC50 (KB): 0.57 µg/mL (≈ 1.63 µM)
- EC50 (P388): 0.93 µg/mL (≈ 2.65 µM)
